In ChEMBL document CHEMBL1201862, “PubChem BioAssay data set” (2004):
Values belong to the compound of their own block, whether it stands above or below them. Calls of active or inactive are those of the source.

Key:
Type in all cases: functional
[1] = target: Protein kinase C theta type (Homo sapiens, UniProt Q04759); test: Navigating the Kinome. Panel member name: PRKCQ
[2] = target: Dual specificity protein kinase CLK2 (Homo sapiens, UniProt P49760)
[3] = target: Dual specificity mitogen-activated protein kinase kinase 1 (Homo sapiens, UniProt Q02750); test: Navigating the Kinome. Panel member name: MAP2K1
[4] = target: Tyrosine-protein kinase JAK2 (Homo sapiens, UniProt O60674);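 further: JAK2 tested as one member of a kinase panel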
[5] = target: Serine/threonine-protein kinase TBK1 (Homo sapiens, UniProt Q9UHD2); test: Navigating the Kinome. Panel member name: TBK1
[6] = target: 5'-AMP-activated protein kinase catalytic subunit alpha-1 (Homo sapiens, UniProt Q13131)
[7] = target: ALK tyrosine kinase receptor (Homo sapiens, UniProt Q9UM73);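 further: ALK tested as one member of a kinase panel screen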
[8] = target: Tyrosine-protein kinase receptor TYRO3 (Homo sapiens, UniProt Q06418);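 further: TYRO3 value obtained as one member of a kinome-wide profiling panel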
[9] = target: Serine/threonine-protein kinase D3 (Homo sapiens, UniProt O94806);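 further: determined within a kinase panel screen, with PRKCN as the panel member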
[10] = target: Tyrosine-protein kinase Lck (Homo sapiens, UniProt P06239);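 further: lck was assayed as one member of a kinase panel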
[11] = target: Death-associated protein kinase 3 (Homo sapiens, UniProt O43293);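 further: measured as one member of a kinome-wide profiling panel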
Activin receptor type-1 = Activin receptor type-1 (Homo sapiens, UniProt Q04771); test: Navigating the Kinome. Panel member name: ACVR1
[12] = target: Mitogen-activated protein kinase 8 (Homo sapiens, UniProt P45983);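 further: value comes from one member of a kinome-wide kinase profiling panel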
[13] = target: Serine/threonine-protein kinase pim-1 (Homo sapiens, UniProt P11309)
Aurora kinase A = Aurora kinase A (Homo sapiens, UniProt O14965);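 further: value from the Navigating the Kinome kinase panel profiling, panel entry STK6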
[14] = target: Serine/threonine-protein kinase PAK 4 (Homo sapiens, UniProt O96013);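 further: value obtained within a kinome profiling panel in which PAK4 was one of the panel members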
[15] = target: Fibroblast growth factor receptor 1 (Homo sapiens, UniProt P11362)
[16] = target: Casein kinase I isoform alpha (Homo sapiens, UniProt P48729)
[17] = target: Tyrosine-protein kinase JAK3 (Homo sapiens, UniProt P52333)
[18] = target: Mitogen-activated protein kinase 9 (Homo sapiens, UniProt P45984);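 further: value from a kinome panel profiling assay, MAPK9 panel entry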
LIM domain kinase 1 = LIM domain kinase 1 (Homo sapiens, UniProt P53667); test: Navigating the Kinome. Panel member name: LIMK1
[19] = target: Serine/threonine-protein kinase TAO1 (Homo sapiens, UniProt Q7L7X3)
[20] = target: High affinity nerve growth factor receptor (Homo sapiens, UniProt P04629);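 further: NTRK1 tested as one member of a kinome-wide profiling panel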
[21] = target: Glycogen synthase kinase-3 alpha (Homo sapiens, UniProt P49840);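 further: GSK3A result taken from a broad kinome-wide kinase panel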
[22] = target: Mitogen-activated protein kinase kinase kinase kinase 2 (Homo sapiens, UniProt Q12851);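 further: measured as one member of a kinome-wide kinase panel, with MAP4K2 as the panel entry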
Activated CDC42 kinase 1 = Activated CDC42 kinase 1 (Homo sapiens, UniProt Q07912); test: Navigating the Kinome. Panel member name: ACK1
[23] = target: Platelet-derived growth factor receptor beta (Homo sapiens, UniProt P09619);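 further: value comes from a kinome panel, with PDGFRB tested as one panel member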
[24] = target: Receptor-type tyrosine-protein kinase FLT3 (Homo sapiens, UniProt P36888);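 further: FLT3 was tested as one member of a kinome-wide kinase panel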
[25] = target: Serine/threonine-protein kinase Chk1 (Homo sapiens, UniProt O14757);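 further: measured as one member of a kinome-wide kinase profiling panel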
[26] = target: Tyrosine-protein kinase ABL1 (Homo sapiens, UniProt P00519)
[27] = target: Vascular endothelial growth factor receptor 2 (Homo sapiens, UniProt P35968)
[28] = target: Cyclin-dependent kinase 5 (Homo sapiens, UniProt Q00535);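 further: CDK5 measured as one member of a kinase profiling panel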
[29] = target: Insulin-like growth factor 1 receptor (Homo sapiens, UniProt P08069); test: Navigating the Kinome. Panel member name: IGF1R
[30] = target: Dual specificity tyrosine-phosphorylation-regulated kinase 1B (Homo sapiens, UniProt Q9Y463); test: Navigating the Kinome. Panel member name: DYRK1B
[31] = target: cAMP-dependent protein kinase catalytic subunit PRKX (Homo sapiens, UniProt P51817)
[32] = target: Platelet-derived growth factor receptor alpha (Homo sapiens, UniProt P16234); test: Navigating the Kinome. Panel member name: PDGFRA
[33] = target: Leucine-rich repeat serine/threonine-protein kinase 2 (Homo sapiens, UniProt Q5S007);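 further: value from a broad kinome-wide panel profiling study in which LRRK2 was one of the kinases tested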
Aurora kinase B = Aurora kinase B (Homo sapiens, UniProt Q96GD4)
[34] = target: Rho-associated protein kinase 1 (Homo sapiens, UniProt Q13464);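 further: measured within a broad kinome-wide panel profiling many kinases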
[35] = target: Tyrosine-protein kinase Fyn (Homo sapiens, UniProt P06241)
[36] = target: Serine/threonine-protein kinase Nek2 (Homo sapiens, UniProt P51955)
[37] = target: Cyclin-dependent kinase 8 (Homo sapiens, UniProt P49336); test: Navigating the Kinome. Panel member name: CDK8
[38] = target: Cyclin-dependent kinase 7 (Homo sapiens, UniProt P50613);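 further: value comes from a kinome-wide kinase profiling panel in which CDK7 is one member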
[39] = target: Vascular endothelial growth factor receptor 1 (Homo sapiens, UniProt P17948);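 further: measured within a kinome-wide profiling panel, FLT1 as the panel member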
[40] = target: Glycogen synthase kinase-3 beta (Homo sapiens, UniProt P49841);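 further: value comes from a broad kinome profiling panel, with GSK3B as the panel member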
[41] = target: Cyclin-dependent kinase 9 (Homo sapiens, UniProt P50750);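 further: value from the CDK9 entry of a kinome-spanning kinase panel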
[42] = target: BDNF/NT-3 growth factors receptor (Homo sapiens, UniProt Q16620);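 further: NTRK2 measured as one member of a broad kinome-wide kinase profiling panel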
[43] = target: cAMP-dependent protein kinase catalytic subunit alpha (Homo sapiens, UniProt P17612)
[44] = target: Dual specificity protein kinase CLK4 (Homo sapiens, UniProt Q9HAZ1)
[45] = target: Mitogen-activated protein kinase kinase kinase kinase 4 (Homo sapiens, UniProt O95819)
[46] = target: Macrophage-stimulating protein receptor (Homo sapiens, UniProt Q04912); test: Navigating the Kinome. Panel member name: MST1R
[47] = target: Macrophage colony-stimulating factor 1 receptor (Homo sapiens, UniProt P07333);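 further: value comes from the Navigating the Kinome screening panel, CSF1R member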
[48] = target: Dual specificity mitogen-activated protein kinase kinase 2 (Homo sapiens, UniProt P36507); test: Navigating the Kinome. Panel member name: MAP2K2
[49] = target: Dual specificity tyrosine-phosphorylation-regulated kinase 1A (Homo sapiens, UniProt Q13627);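 further: measured against DYRK1A as one member of a broad kinome profiling panel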
[50] = target: Inhibitor of nuclear factor kappa-B kinase subunit epsilon (Homo sapiens, UniProt Q14164); test: Navigating the Kinome. Panel member name: IKBKE
[51] = target: Calcium/calmodulin-dependent protein kinase type II subunit alpha (Homo sapiens, UniProt Q9UQM7); test: Navigating the Kinome. Panel member name: CAMK2A
[52] = target: Leukocyte tyrosine kinase receptor (Homo sapiens, UniProt P29376); test: Navigating the Kinome. Panel member name: LTK
[53] = target: Mitogen-activated protein kinase 14 (Homo sapiens, UniProt Q16539);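 further: part of a kinome-wide panel, MAPK14 entry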
[54] = target: T1, High affinity choline transporter 1 (Homo sapiens, UniProt Q9GZV3); test: human choline transporter blockers, potency – cell-based, 5-point CRC, membrane potential dye, dose response (AID 504840)
T1 sequence (Q9GZV3 whole entry): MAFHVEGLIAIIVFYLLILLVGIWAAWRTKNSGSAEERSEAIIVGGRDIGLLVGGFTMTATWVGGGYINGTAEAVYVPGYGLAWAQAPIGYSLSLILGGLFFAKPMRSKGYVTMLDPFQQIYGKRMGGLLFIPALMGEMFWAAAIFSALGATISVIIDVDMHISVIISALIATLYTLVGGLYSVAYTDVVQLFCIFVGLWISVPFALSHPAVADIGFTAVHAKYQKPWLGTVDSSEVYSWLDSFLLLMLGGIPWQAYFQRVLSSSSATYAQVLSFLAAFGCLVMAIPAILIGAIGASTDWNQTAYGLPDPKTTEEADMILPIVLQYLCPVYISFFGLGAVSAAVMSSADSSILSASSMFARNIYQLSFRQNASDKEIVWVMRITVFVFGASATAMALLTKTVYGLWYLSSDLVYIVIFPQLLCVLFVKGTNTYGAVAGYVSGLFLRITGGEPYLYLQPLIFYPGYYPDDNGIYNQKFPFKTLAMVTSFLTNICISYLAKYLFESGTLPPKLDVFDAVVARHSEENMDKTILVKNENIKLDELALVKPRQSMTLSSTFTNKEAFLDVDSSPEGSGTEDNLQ

[55] = target: T1, High affinity choline transporter 1; test: human choline transporter blockers, potency – cell-based, 10-point CRC, membrane potential dye, dose response (AID 588401);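 further: membrane potential dye fluorescence of choline-evoked depolarization via CHT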

Sequence of Mitogen-activated protein kinase 14 (Q16539 whole entry): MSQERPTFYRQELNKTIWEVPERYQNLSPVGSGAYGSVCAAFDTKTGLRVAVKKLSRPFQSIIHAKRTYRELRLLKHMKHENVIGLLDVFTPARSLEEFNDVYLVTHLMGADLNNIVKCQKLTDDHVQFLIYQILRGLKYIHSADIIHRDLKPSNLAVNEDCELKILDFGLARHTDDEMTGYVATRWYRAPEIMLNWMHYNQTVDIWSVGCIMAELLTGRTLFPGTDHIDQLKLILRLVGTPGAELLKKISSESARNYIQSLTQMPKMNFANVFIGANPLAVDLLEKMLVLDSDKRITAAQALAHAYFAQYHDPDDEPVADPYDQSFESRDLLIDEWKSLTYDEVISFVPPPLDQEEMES
Sequence of Cyclin-dependent kinase 7 (P50613 whole entry): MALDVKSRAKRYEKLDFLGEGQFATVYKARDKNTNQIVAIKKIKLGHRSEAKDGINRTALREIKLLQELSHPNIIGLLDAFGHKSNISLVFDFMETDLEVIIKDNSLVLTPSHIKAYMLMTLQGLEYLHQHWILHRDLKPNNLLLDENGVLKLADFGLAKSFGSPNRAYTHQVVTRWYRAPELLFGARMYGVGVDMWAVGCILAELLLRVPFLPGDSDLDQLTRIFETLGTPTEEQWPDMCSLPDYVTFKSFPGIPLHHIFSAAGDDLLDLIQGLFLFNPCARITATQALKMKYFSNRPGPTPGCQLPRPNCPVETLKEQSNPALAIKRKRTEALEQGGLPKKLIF
Sequence of High affinity nerve growth factor receptor (P04629 whole entry): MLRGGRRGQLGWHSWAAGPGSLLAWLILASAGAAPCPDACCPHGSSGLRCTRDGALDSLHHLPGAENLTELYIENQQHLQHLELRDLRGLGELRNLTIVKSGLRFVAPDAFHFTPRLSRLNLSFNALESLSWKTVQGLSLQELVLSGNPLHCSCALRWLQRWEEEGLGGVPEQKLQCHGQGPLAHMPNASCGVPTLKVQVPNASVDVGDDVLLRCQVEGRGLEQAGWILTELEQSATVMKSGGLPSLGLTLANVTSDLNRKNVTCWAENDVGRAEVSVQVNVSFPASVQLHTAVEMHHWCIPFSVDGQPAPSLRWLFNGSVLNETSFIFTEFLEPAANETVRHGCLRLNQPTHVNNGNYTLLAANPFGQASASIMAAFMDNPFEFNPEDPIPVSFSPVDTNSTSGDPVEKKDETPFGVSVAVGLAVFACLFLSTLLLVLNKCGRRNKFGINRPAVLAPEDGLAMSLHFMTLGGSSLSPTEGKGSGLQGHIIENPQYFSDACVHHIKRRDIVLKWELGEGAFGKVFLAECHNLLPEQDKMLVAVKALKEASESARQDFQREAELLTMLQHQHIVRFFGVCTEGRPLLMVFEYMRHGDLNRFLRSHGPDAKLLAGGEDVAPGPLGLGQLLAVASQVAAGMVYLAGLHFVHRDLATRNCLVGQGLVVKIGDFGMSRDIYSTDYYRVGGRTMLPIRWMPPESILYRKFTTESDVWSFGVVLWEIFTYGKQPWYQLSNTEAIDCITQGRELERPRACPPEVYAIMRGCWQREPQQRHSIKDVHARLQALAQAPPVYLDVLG
Sequence of Leukocyte tyrosine kinase receptor (P29376 whole entry): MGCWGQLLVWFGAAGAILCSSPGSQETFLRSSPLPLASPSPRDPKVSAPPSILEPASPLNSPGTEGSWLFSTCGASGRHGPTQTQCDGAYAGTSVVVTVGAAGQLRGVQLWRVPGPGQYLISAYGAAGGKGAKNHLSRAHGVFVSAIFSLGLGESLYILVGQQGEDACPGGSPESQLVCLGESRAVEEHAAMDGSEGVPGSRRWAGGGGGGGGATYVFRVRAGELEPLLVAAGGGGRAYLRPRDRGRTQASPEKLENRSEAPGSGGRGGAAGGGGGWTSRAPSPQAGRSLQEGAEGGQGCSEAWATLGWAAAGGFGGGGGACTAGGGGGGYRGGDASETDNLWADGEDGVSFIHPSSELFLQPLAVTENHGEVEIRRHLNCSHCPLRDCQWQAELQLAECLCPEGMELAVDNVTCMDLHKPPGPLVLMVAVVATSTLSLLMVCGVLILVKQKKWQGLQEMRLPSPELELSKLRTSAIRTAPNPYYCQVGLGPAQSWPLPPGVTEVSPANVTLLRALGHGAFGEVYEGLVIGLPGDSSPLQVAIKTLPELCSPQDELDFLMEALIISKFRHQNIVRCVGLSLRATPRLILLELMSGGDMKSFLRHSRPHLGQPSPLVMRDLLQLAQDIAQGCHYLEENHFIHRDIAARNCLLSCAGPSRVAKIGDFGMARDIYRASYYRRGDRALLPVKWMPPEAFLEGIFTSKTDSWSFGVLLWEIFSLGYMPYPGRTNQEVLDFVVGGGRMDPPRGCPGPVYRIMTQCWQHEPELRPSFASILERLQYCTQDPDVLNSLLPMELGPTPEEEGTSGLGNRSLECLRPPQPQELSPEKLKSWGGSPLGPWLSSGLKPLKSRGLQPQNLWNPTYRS
Sequence of Platelet-derived growth factor receptor beta (P09619 whole entry): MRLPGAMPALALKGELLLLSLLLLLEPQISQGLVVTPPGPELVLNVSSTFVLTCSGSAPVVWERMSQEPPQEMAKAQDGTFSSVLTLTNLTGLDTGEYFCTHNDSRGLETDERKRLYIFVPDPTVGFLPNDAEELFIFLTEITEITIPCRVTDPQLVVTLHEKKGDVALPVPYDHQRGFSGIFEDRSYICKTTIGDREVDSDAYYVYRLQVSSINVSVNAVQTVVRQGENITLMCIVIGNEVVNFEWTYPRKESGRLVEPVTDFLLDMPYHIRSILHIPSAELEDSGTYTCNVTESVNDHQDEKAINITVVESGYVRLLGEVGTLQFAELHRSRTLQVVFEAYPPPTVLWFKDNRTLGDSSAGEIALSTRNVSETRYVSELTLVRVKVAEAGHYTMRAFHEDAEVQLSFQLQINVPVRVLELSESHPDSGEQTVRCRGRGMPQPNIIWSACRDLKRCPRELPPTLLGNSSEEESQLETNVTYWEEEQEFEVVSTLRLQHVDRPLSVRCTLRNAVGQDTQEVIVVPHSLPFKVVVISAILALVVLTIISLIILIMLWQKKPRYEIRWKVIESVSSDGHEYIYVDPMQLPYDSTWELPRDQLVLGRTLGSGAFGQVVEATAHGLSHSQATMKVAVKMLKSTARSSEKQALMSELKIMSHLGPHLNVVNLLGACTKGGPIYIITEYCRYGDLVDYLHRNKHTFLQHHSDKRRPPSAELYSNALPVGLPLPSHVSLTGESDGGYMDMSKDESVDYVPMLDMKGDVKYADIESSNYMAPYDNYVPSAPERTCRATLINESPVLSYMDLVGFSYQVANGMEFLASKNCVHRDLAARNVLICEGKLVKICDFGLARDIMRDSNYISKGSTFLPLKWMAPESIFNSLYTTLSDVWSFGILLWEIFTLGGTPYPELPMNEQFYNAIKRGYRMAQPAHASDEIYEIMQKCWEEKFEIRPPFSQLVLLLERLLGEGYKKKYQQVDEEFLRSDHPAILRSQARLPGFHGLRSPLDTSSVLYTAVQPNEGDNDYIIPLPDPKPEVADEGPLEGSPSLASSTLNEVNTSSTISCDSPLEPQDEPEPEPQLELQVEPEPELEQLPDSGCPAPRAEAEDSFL
Sequence of Mitogen-activated protein kinase kinase kinase kinase 4 (O95819 whole entry): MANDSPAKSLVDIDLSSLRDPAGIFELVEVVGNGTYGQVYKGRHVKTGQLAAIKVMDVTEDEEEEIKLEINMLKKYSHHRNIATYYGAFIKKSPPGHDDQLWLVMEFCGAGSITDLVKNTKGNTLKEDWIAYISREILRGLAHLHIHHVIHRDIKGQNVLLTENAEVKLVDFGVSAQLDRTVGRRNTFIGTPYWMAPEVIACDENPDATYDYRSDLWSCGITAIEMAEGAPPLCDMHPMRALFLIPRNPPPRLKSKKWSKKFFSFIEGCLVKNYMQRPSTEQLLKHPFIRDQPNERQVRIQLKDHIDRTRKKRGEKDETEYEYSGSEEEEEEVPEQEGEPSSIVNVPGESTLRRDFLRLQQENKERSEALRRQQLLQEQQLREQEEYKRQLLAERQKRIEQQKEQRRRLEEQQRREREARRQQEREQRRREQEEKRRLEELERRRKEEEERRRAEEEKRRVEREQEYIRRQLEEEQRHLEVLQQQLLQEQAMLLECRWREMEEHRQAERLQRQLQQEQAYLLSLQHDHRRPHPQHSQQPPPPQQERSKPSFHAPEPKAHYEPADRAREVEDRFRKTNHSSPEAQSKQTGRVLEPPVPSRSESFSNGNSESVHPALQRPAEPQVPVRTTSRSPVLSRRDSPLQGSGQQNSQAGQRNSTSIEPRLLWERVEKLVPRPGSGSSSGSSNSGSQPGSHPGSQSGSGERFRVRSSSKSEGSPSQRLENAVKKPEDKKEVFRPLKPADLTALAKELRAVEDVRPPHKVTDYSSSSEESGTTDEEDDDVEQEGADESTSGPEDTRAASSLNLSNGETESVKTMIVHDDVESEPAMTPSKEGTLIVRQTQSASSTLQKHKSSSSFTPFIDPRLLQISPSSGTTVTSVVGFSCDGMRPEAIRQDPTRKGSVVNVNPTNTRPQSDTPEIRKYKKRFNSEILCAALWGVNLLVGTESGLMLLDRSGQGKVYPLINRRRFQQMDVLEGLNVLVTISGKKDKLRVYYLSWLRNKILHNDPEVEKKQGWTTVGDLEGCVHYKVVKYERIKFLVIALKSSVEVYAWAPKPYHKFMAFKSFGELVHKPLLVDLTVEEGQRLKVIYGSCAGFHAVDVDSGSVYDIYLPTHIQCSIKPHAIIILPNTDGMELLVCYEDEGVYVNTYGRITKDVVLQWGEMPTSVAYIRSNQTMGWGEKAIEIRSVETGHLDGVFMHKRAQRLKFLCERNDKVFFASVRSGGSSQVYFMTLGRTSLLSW
Sequence of Serine/threonine-protein kinase pim-1 (P11309 whole entry): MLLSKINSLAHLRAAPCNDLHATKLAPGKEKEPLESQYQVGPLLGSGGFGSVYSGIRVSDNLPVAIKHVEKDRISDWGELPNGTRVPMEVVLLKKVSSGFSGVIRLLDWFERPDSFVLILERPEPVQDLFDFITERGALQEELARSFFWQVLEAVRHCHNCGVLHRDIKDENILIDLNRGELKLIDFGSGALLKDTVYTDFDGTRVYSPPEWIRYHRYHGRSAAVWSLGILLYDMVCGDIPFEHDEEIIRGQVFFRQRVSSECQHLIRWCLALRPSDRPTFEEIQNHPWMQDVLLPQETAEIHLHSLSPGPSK

Ki [1]: > 2510 nM (inactive)
Ki [2]: 398 nM (active)
Ki [3]: 1000 nM (active)
Ki [4]: > 2510 nM (inactive)
Ki [5]: 794 nM (active)
Ki [6]: 1260 nM (active)
Ki [7]: 2510 nM (active)
Ki [8]: 2510 nM (active)
Ki [9]: 3160 nM (active)
Ki [10]: > 6310 nM (inactive)
Ki (Activin receptor type-1): 2000 nM (active)
Ki [12]: 1260 nM (active)
Ki [13]: > 6310 nM (inactive)
Ki (Aurora kinase A): 1580 nM (active)
Ki [14]: > 5010 nM (inactive)
Ki [15]: 3160 nM (active)
Ki [16]: 39.8 nM (active)
Ki [17]: > 5010 nM (inactive)
Ki [18]: > 3980 nM (inactive)
Ki (LIM domain kinase 1): > 3160 nM (inactive)
Ki [19]: > 6310 nM (inactive)
Ki [20]: > 3160 nM (inactive)
Ki [21]: 79.4 nM (active)
Ki [22]: 1580 nM (active)
Ki (Activated CDC42 kinase 1): > 3980 nM (inactive)
Ki [23]: 316 nM (active)
Ki [24]: 100 nM (active)
Ki [25]: > 3160 nM (inactive)
Ki [26]: > 2510 nM (inactive)
Ki [27]: 158 nM (active)
Ki [28]: > 3160 nM (inactive)
Ki [29]: > 2510 nM (inactive)
Ki [30]: 126 nM (active)
Ki [31]: > 3160 nM (inactive)
Ki [32]: > 2510 nM (inactive)
Ki [33]: 1260 nM (active)
Ki (Aurora kinase B): 501 nM (active)
Ki [34]: 2000 nM (active)
Ki [35]: > 6310 nM (inactive)
Ki [36]: > 3160 nM (inactive)
Ki [37]: > 3980 nM (inactive)
Ki [38]: 39.8 nM (active)
Ki [39]: 1580 nM (active)
Ki [40]: 31.6 nM (active)
Ki [41]: 631 nM (active)
Ki [42]: 2000 nM (active)
Ki [43]: > 1260 nM (inactive)
Ki [44]: 31.6 nM (active)
Ki [45]: 316 nM (active)
Ki [46]: 316 nM (active)
Ki [47]: 126 nM (active)
Ki [48]: 794 nM (active)
Ki [49]: 100 nM (active)
Ki [50]: 2000 nM (active)
Ki [51]: > 3980 nM (inactive)
Ki [52]: 501 nM (active)
Ki [53]: > 3980 nM (inactive)
SMILES: N#Cc1ccc2c(c1)C(c1ccc3c(n1)CCCC3O)C(=O)N2 (stereo not given)
Ki [11]: 1260 nM (active)

IC50 [54]: 8720 nM (active)
IC50 [55]: 5770 nM (active)
SMILES: COc1ccc(C(CNC(=O)c2cccc(S(=O)(=O)Nc3ccc(C)cc3)c2)N2CCCCC2)cc1 (stereo not given)
